Test results reported in ChEMBL document CHEMBL4229557, “Synthesis and SAR of new isoxazole-triazole bis-heterocyclic compounds as analogues of natural lignans with antiparasitic activity” (Bioorg Med Chem, 2018).
The source made the active and inactive calls. The calls are words filed in the database; no cut-off is given here.

How the values were obtained:
Trypanosoma cruzi [1] = test: Growth inhibition of Trypanosoma cruzi Tulahuen amastigote forms infected in human THP1 cells at 100 uM after 72 hrs by beta-galactosidase reporter gene assay relative to control; type: functional; conditions: THP-1, 72 h, read-out: GI
Leishmania amazonensis [2] = test: Growth inhibition of Leishmania amazonensis MHOM/BR/77/LTB0016 amastigote forms expressing beta-galactosidase infected in human THP1 cells at 100 uM by colorimetrc assay relative to control; type: functional; conditions: for inhibition of growth at 100 µM: MHOM/BR/77/LTB0016, THP-1, read-out: GI
Trypanosoma cruzi [3] = test: Growth inhibition of Trypanosoma cruzi Tulahuen amastigote forms infected in human THP1 cells after 72 hrs by beta-galactosidase reporter gene assay; type: functional
[4] = Cytotoxicity against human THP1 cells after 72 hrs by MTT assay; type: cell-based; conditions: THP-1 cells
Trypanosoma cruzi [5] = test: Growth inhibition of Trypanosoma cruzi Tulahuen amastigote forms infected in human THP1 cells at 20 uM after 72 hrs by beta-galactosidase reporter gene assay relative to control; type: functional; conditions: THP-1, 72 h, read-out: GI
[6] = Selectivity index, ratio of CC50 for human THP1 cells to GI50 for Trypanosoma cruzi Tulahuen amastigote forms infected in human THP1 cells; type: toxicity, cell-based; conditions: read-out: Selectivity Index
[7] = molecular target: Trypanothione reductase (Trypanosoma cruzi) (UniProt P28593); test: Inhibition of Trypanosoma cruzi Trypanothione reductase expressed in Escherichia coli BL21(DE3) at 100 uM using T(S)2 as substrate incubated for 30 mins measured for 30 mins in presence of NADPH by DTNB reagent based assay relative to control
Trypanothione reductase (Trypanosoma cruzi), sequence (P28593 whole entry, looked up): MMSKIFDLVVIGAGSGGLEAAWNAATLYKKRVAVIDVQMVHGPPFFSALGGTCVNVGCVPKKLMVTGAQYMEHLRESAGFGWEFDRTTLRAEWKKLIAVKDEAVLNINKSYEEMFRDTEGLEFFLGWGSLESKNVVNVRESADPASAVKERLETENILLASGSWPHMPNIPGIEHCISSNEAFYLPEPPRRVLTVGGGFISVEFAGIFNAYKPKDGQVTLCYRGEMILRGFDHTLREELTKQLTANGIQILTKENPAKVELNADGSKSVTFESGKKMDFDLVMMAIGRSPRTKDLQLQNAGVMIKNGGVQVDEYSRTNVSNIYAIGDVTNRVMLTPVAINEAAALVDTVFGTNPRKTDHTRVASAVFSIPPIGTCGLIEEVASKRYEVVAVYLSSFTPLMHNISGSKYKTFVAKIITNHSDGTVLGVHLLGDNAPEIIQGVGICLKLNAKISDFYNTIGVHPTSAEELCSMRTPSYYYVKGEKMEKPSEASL

Leishmania amazonensis [8] = test: Growth inhibition of Leishmania amazonensis MHOM/BR/77/LTB0016 amastigote forms expressing beta-galactosidase infected in human THP1 cells at 2 uM by colorimetrc assay relative to control; type: functional; conditions: MHOM/BR/77/LTB0016, THP-1, read-out: GI

Structure (SMILES) | GI50 (Trypanosoma cruzi [3]; THP-1, 72 h) [µM] | inhibition of growth at 100 µM (Trypanosoma cruzi [1]) [%] | growth inhibition (GI) (Leishmania amazonensis [2]) | other results
COc1ccc(-c2cc(Cn3cc(-c4ccc(OC(F)(F)F)cc4)nn3)on2)cc1 | > 100 | 26 | inactive | –
O=C(Cn1ccnc1[N+](=O)[O-])NCc1ccccc1 [BENZNIDAZOLE] | 10.2 | – | – | CC50 at 72 h [4]: > 500 µM; inhibition of growth at 20 µM (Trypanosoma cruzi [5]): 93%; selectivity ratio [6]: > 49
c1ccc(-c2cn(Cc3cc(-c4ccccc4)no3)nn2)cc1 | > 100 | 33.7 | inactive | –
CCCCCc1ccc(-c2cn(Cc3cc(-c4ccc(OC)cc4)no3)nn2)cc1 | > 100 | 13.4 | inactive | –
COc1ccc(-c2cc(Cn3cc(-c4ccc(C)cc4)nn3)on2)cc1OC | > 100 | 7.6 | inactive | –
COc1ccc(-c2cc(Cn3cc(-c4ccc([N+](=O)[O-])cc4)nn3)on2)cc1OC | > 100 | 37.8 | inactive | –
Cc1cc(C)c(-c2cn(Cc3cc(-c4ccc5c(c4)OCO5)no3)nn2)cc1C | > 100 | 13.4 | inactive | –
Cc1ccc(-c2cn(Cc3cc(-c4ccccc4)no3)nn2)cc1 | > 100 | 45.2 | inactive | –
CN(C)CCCN1c2ccccc2CCc2ccc(Cl)cc21 [CLOMIPRAMINE] | 14 | – | – | –
Cc1ccc(C)c(-c2cn(Cc3cc(-c4ccccc4)no3)nn2)c1 | – | 0 | inactive | GI50 (Trypanosoma cruzi [3]): inactive
COc1ccc(-c2cn(Cc3cc(-c4ccc5c(c4)OCO5)no3)nn2)cc1 | > 100 | 9.9 | – | inhibition of growth at 100 µM (Leishmania amazonensis [2]): 2.8%
COc1ccc(-c2cc(Cn3cc(-c4cc(C)c(C)cc4C)nn3)on2)cc1 | > 100 | 33.4 | inactive | –
O=[N+]([O-])c1ccc(-c2cn(Cc3cc(-c4ccccc4)no3)nn2)cc1 | > 100 | 46.9 | inactive | –
FC(F)(F)Oc1ccc(-c2cn(Cc3cc(-c4ccc5c(c4)OCO5)no3)nn2)cc1 | > 100 | 26.8 | inactive | –
Fc1ccc(-c2cn(Cc3cc(-c4ccccc4)no3)nn2)cc1 | – | 0 | inactive | GI50 (Trypanosoma cruzi [3]): inactive
CCCCCc1ccc(-c2cn(Cc3cc(-c4ccccc4)no3)nn2)cc1 | – | 0 | inactive | GI50 (Trypanosoma cruzi [3]): inactive
C[C@@H]1[C@H](O)[C@@H](C)/C=C/C=C/C=C/C=C/C=C/C=C/C=C/[C@H](O[C@@H]2O[C@H](C)[C@@H](O)[C@H](N)[C@@H]2O)C[C@@H]2O[C@](O)(C[C@@H](O)C[C@@H](O)[C@H](O)CC[C@@H](O)C[C@@H](O)CC(=O)O[C@H]1C)C[C@H](O)[C@H]2C(=O)O [AMPHOTERICIN B] | – | – | – | inhibition of growth at 2 µM (Leishmania amazonensis [8]): 96.5%
Nc1ccc(-c2cn(Cc3cc(-c4ccccc4)no3)nn2)cc1 | – | 0 | inactive | GI50 (Trypanosoma cruzi [3]): inactive
COc1ccccc1-c1cn(Cc2cc(-c3ccccc3)no2)nn1 | > 100 | 12.4 | inactive | –
COc1ccc2cc(-c3cn(Cc4cc(-c5ccc(OC)c(OC)c5)no4)nn3)ccc2c1 | > 100 | 26.2 | inactive | –
COc1ccc(-c2cn(Cc3cc(-c4ccccc4)no3)nn2)cc1 | > 100 | 43.3 | inactive | –
COc1ccc(-c2cc(Cn3cc(-c4ccc(N)cc4)nn3)on2)cc1OC | > 100 | 42.8 | inactive | –
COc1ccc(-c2cc(Cn3cc(-c4ccccc4OC)nn3)on2)cc1OC | > 100 | 43.7 | inactive | –
COc1ccc(-c2cc(Cn3cc(-c4ccc(F)cc4)nn3)on2)cc1OC | > 100 | 32 | inactive | –
COc1ccc(-c2cc(Cn3cc(-c4cc(C)c(C)cc4C)nn3)on2)cc1OC | 55.2 | 89.6 | inactive | CC50 at 72 h [4]: > 500 µM; selectivity ratio [6]: > 9; inhibition [7]: 9%
COc1ccc(-c2cn(Cc3cc(-c4ccc(OC)c(OC)c4)no3)nn2)cc1 | 22.7 | 81.9 | inactive | CC50 at 72 h [4]: > 500 µM; selectivity ratio [6]: > 22; inhibition [7]: 9.6%
COc1ccc(-c2cn(Cc3cc(-c4ccc(OC)cc4)no3)nn2)cc1 | > 100 | 43.2 | inactive | –
CCCCCc1ccc(-c2cn(Cc3cc(-c4ccc(OC)c(OC)c4)no3)nn2)cc1 | 12.2 | 80.2 | inactive | CC50 at 72 h [4]: > 500 µM; selectivity ratio [6]: > 41; inhibition [7]: 0%
OCc1ccc(-c2cn(Cc3cc(-c4ccccc4)no3)nn2)cc1 | – | 0 | inactive | GI50 (Trypanosoma cruzi [3]): inactive

More lines, main results first:

GI50 (Trypanosoma cruzi [3]; THP-1, 72 h) [µM] | Structure (SMILES) | inhibition of growth at 100 µM (Trypanosoma cruzi [1]) [%] | growth inhibition (GI) (Leishmania amazonensis [2]) | other results
49.9 | COc1cc(OC)cc(-c2cn(Cc3cc(-c4ccc5c(c4)OCO5)no3)nn2)c1 | 87.9 | inactive | CC50 at 72 h [4]: 208 µM; selectivity ratio [6]: 4.2; inhibition [7]: 0%
40.1 | COc1ccc(-c2cc(Cn3cc(-c4ccc(OC(F)(F)F)cc4)nn3)on2)cc1OC | 78.5 | inactive | CC50 at 72 h [4]: 227 µM; selectivity ratio [6]: 5.7; inhibition [7]: 0%
> 100 | COc1ccc(-c2cc(Cn3cc(-c4ccccc4)nn3)on2)cc1OC | 12.2 | inactive | –
54.5 | COc1cc(OC)cc(-c2cn(Cc3cc(-c4ccccc4)no3)nn2)c1 | 95.3 | inactive | CC50 at 72 h [4]: 143 µM; selectivity ratio [6]: 2.6; inhibition [7]: 0%
> 100 | CCCCCc1ccc(-c2cn(Cc3cc(-c4ccc5c(c4)OCO5)no3)nn2)cc1 | 48.9 | – | inhibition of growth at 100 µM (Leishmania amazonensis [2]): 1.7%
> 100 | FC(F)(F)Oc1ccc(-c2cn(Cc3cc(-c4ccccc4)no3)nn2)cc1 | 28.7 | inactive | –
> 100 | COc1ccc(-c2cc(Cn3cc(-c4ccc(CO)cc4)nn3)on2)cc1OC | 43.4 | inactive | –
> 100 | COc1ccc(-c2cc(Cn3cc(-c4cc(C)ccc4C)nn3)on2)cc1OC | 4 | inactive | –
> 100 | COc1ccc(-c2cn(Cc3cc(-c4ccccc4)no3)nn2)c(C)c1 | 18.6 | inactive | –
88.4 | Cc1cc(C)c(-c2cn(Cc3cc(-c4ccccc4)no3)nn2)cc1C | 89.5 | inactive | CC50 at 72 h [4]: 200 µM; selectivity ratio [6]: 2.3; inhibition [7]: 0%
> 100 | COc1ccc(-c2cc(Cn3cc(-c4ccc(N(C)C)cc4)nn3)on2)cc1OC | 33.9 | inactive | –
> 100 | CN(C)c1ccc(-c2cn(Cc3cc(-c4ccccc4)no3)nn2)cc1 | 32.6 | inactive | –
> 100 | COc1ccc(-c2cn(Cc3cc(-c4ccc(OC)c(OC)c4)no3)nn2)c(C)c1 | 13.6 | inactive | –
> 100 | COc1ccc2cc(-c3cn(Cc4cc(-c5ccccc5)no4)nn3)ccc2c1 | 43.1 | inactive | –
30.3 | COc1cc(OC)cc(-c2cn(Cc3cc(-c4ccc(OC)c(OC)c4)no3)nn2)c1 | 74.8 | inactive | CC50 at 72 h [4]: > 500 µM; selectivity ratio [6]: > 16.5; inhibition [7]: 8.9%
> 100 | COc1ccc(-c2cc(Cn3cc(-c4cc(OC)cc(OC)c4)nn3)on2)cc1 | 3.6 | inactive | –
